Calls of active or inactive are those of the source. How the calls were made is not given here.

The first test deals with GTP-binding nuclear protein Ran (Homo sapiens) + Importin subunit beta-1 (Homo sapiens) (UniProt P62826+Q14974). The test can be described thus: inhibitors of Ran–importin-beta complex, dose response, biochemical, plate reader, dry powder (AID 493048). The conditions noted are these: biochemical RanGTP-importin-beta complex.
The AC50 is the concentration at which the activity in the assay is half-maximal. For the compound `C=CCn1c(N)c(C(=O)OCCC)c2nc3ccccc3nc21`, the AC50 is 36.4 µM. The same measure, in the same setting: next, `COc1cc(OC)cc(C(=O)NCCNc2nc3cc(C)cc(C)c3cc2C#N)c1`: 12.9 µM; `COc1ccc(CCNC(=O)c2cc3c(=O)n4cccc(C)c4nc3n(CCCN3CCOCC3)c2=N)cc1`: 9.68 µM. Same read-out and setting: next, `O=C(O)Cn1cc(/C=C2\SC(=O)N(CC(=O)N3CCCCCC3)C2=O)c2ccccc21`: 90.9 µM. The same measure, in the same setting: next, `CC1=C(C(=O)OCC2CCCO2)C(c2ccccc2OC(C)C)C2C(=O)CC(c3ccco3)CC2=N1` (stereo unspecified): 10.3 µM. As to `COc1ccc(-c2cc(C(F)(F)F)n3nc(N)nc3n2)cc1`, the AC50 was 61.5 µM. Same read-out and setting: the figure for `Cc1cccc(-n2c(C)cc(/C=C3/C(=N)N4N=C(CC(C)C)SC4=NC3=O)c2C)c1` is 28.2 µM.

For `CC(C)SCC(=O)Nc1ncc2c(n1)-c1ccccc1CC2`, the AC50 is 37.3 µM.

Still in this test, the particulars now being: biochemical RanGTP-importin-beta complex, at 26 µM (top of the series).
Consider `CCCN(CCC)c1nc(N2CCCC2)c2cc(OC)c(OC)cc2n1`, for which the “activity change, negative = inhibition” value is “inactive”.

Staying with this test, now noted: biochemical RanGTP-importin-beta complex, at 50 µM (top of the series).
Regarding `CCCN(CCC)c1nc(N2CCCC2)nc2cc(OC)c(OC)cc12`, the “activity change, negative = inhibition” value is “inactive”.

Staying with this test, now noted: biochemical RanGTP-importin-beta complex, at 100 µM (top of the series).
Consider `CC1(C)CC(=O)c2c(C(F)(F)F)nn(-c3ccc(C(N)=O)c(NC4CCC(OC(=O)CN)CC4)c3)c2C1` (stereo unspecified), for which the “activity change, negative = inhibition” value is “inactive”. In the case of `C[C@H](Nc1nc(Cl)nc2ccccc12)c1ccccc1`, the “activity change, negative = inhibition” value is “inactive”. Same read-out and setting: next, `CCCN(CCC)c1nc(Cl)nc2ccccc12`: “inactive”; `c1ccc2c(N3CCCC3)nc(N3CCCC3)nc2c1`: “inactive”; `Cc1cc(Nc2ccc(C(F)(F)F)cc2)n2ncnc2n1`: “inactive”.

As for `CCCN(CCC)c1nc(N)c2ccccc2n1`, the “activity change, negative = inhibition” value is “inactive”. On the same count and under the same terms, next, `c1ccc(CNc2nc(N3CCCC3)nc3ccccc23)cc1`: “inactive”; `CC1(C)CC(=O)c2c(C(F)(F)F)nn(-c3ccc(C(N)=O)c(NC4CCC(O)CC4)c3)c2C1` (stereo unspecified): “inactive”; `CCNc1nc(N2CCCC2)nc2ccccc12`: “inactive”.

Take `Clc1nc(NCc2ccccc2)c2ccccc2n1`: the “activity change, negative = inhibition” value was “inactive”. With `CC(Nc1nc(N2CCCC2)nc2ccccc12)c1ccccc1` (stereo unspecified), the “activity change, negative = inhibition” value is “inactive”.

For `CCCN(CCC)c1nc(N2CCCC2)nc2ccccc12`, the “activity change, negative = inhibition” value is “inactive”. The same measure, in the same setting: the entry for `Cc1cccc(C)c1NC(=O)C1C(=O)c2sccc2N(C)S1(=O)=O` (stereo unspecified) is “inactive”; for `C[C@H](Nc1nc(N2CCCC2)nc2ccccc12)c1ccccc1` it is “inactive”; for `COc1cc2nc(N3CCCC3)nc(N3CCCC3)c2cc1OC` it is “inactive”.

As to `C[C@@H](Nc1nc(Cl)nc2ccccc12)c1ccccc1`, the “activity change, negative = inhibition” value was “inactive”. With `CCCN(CCC)c1nc(N2CCNCC2)c2ccccc2n1`, the “activity change, negative = inhibition” value was “inactive”.

As for `CCN(CC)c1nc(N2CCCC2)nc2ccccc12`, the “activity change, negative = inhibition” value is “inactive”. Same read-out and setting: next, `CC1(C)CCC(c2ccc(Cl)cc2)=C(CN2CCN(c3ccc(C(=O)NS(=O)(=O)c4ccc(N[C@H](CCN5CCOCC5)CSc5ccccc5)c(S(=O)(=O)C(F)(F)F)c4)cc3)CC2)C1`: “inactive”. On the same count and under the same terms, the entry for `C[C@@H](Nc1nc(N2CCCC2)nc2ccccc12)c1ccccc1` is “inactive”. Same read-out and setting: next, `CC1(C)CC(=O)c2c(C(F)(F)F)nn(-c3ccc(C(N)=O)c(OC4CCC(N)CC4)c3)c2C1` (stereo unspecified): “inactive”. With `CSc1ccc(/C=C(/Sc2nnc(-c3ccccc3)o2)C(=O)O)cc1`, the “activity change, negative = inhibition” value was “inactive”. Same read-out and setting: the entry for `c1ccc2c(N3CCOCC3)nc(N3CCOCC3)nc2c1` is “inactive”. Still for that read-out and setting: the entry for `CCCN(CCC)c1nc(NCc2ccccc2)nc2ccccc12` is “inactive”; for `O=c1[nH]c(N2CCCC2)nc2ccccc12` it is “inactive”. The same measure, in the same setting: the entry for `CCCN(CCC)c1nc(N2CCOCC2)nc2ccccc12` is “inactive”.

The values above are taken from PubChem BioAssay AID493048 (Broad Institute, 2011).
